Reference: patent US20160115540A1, “PRODRUGS AND DRUGS” (Biogen MA Inc., priority 2013, published 2016)
“Also recorded” adds a separate entry of the source. Where a name gives a salt, the structure may show the parent alone.

Assays:
hippocampus = experiment: Transcriptional profiling on Affymetrix GeneChips, single dose, naïve mice: hippocampus; assay type: in vivo, C57BL/6 mice; details: for Number of differentially expressed genes identified: Hippocampus: Naïve, Single Dose
Procedure: (§1) Treated mice were sacrificed at 2, 7, or 12 hours. Tissues (liver, spleen, kidney, jejunum, cortex, hippocampus, striatum and whole blood) were collected and analyzed by transcriptional profiling on mouse Affymetrix GeneChips.
(§2) Tissues (liver, spleen, kidney, jejunum, cortex, hippocampus, striatum and whole blood) were collected and analyzed by transcriptional profiling on mouse Affymetrix GeneChips.
(§3) Animals were exposed to CO2 and whole blood collected via cardiac puncture. Two 100 μl aliquots of whole blood were collected in 1.5 mL microcentrifuge tubes and snap frozen in liquid nitrogen. Peripheral (liver, spleen, kidney and jejunum) and CNS brain (cerebellum, hippocampus, striatum and cortex) tissues were harvested and snap frozen in liquid nitrogen, with special care taken to collect tissues of similar size and from the same location. All samples were stored at −80° C. until RNA extraction was conducted.
(§4) For RNA preparation, frozen tissues were placed in 2 mL RNAse-free 96-well blocks with 1.5 mL QIAzol Lysis Reagent (QIAgen) and a 3.2 mm stainless steel bead (BioSpec Products, Bartlesville, Okla.). Tissues were disrupted for four cycles of 45 seconds in a Mini-Beadbeater (Biospec Products). RNA was extracted in chloroform and the aqueous phase was mixed with an equal volume of 70% ethanol. Extracted RNA was applied to RNeasy 96 plates and purified by the spin method according to the manufacturer's protocol (RNeasy 96 Universal Tissue Protocol, QIAgen, Hilden Germany).
(§5) Automated sample amplifications and biotin labelings were carried out using the NuGEN Ovation RNA Amplification system V2 (Cat #3100), Ovation WB reagent (Cat #1300) and Encore Biotin module (Cat #4200) (NuGEN Technologies, Inc, San Carlos, Calif.) according to manufacturer's recommendations using an Arrayplex automated liquid handler (Beckman Coulter, Indianapolis, Ind.). Two micrograms of biotin labeled sscDNA probe were hybridized to Affymetrix GeneChip Affymetrix HT_MG-430_PM plate arrays with modified conditions as described in Allaire et al. Washing and staining of the hybridized arrays were completed as described in the GeneChip Expression analysis technical manual for HT plate arrays using the Genechip® Array Station (Affymetrix, Santa Clara, Calif.) with modifications as described in Allaire et al. The processed GeneChip® plate arrays were scanned using GeneTitan scanner (Affymetrix, Santa Clara, Calif.).
(§6) Affymetrix scans were subject to quality control (QC) measures. These tests included a visual inspection of the distribution of raw signal intensities and an assessment of RNA degradation, relative log expression (RLE), and normalized unsealed standard error (NUSE). All sample scans that passed these QC metrics were included in the analysis.
(§7) All CEL files were subjected to GC-content-based Robust Multi-array Average (GCRMA) normalization (version 2.20.0) (Irizarry R A, et al. Nucleic Acids Res 2003; 31:e15; Li C, et al. Genome Biol 2001; 2:[…]0032). Expression levels were log (base 2) transformed.
(§8) All calculations and analyses were carried out using R (version 2.11.1) and Bioconductor computational tools (Gentleman R. Springer Science+Business Media 2005).

striatum = experiment: Transcriptional profiling on Affymetrix GeneChips, single dose, naïve mice: striatum; assay type: in vivo, C57BL/6 mice; details: for Number of differentially expressed genes identified: Striatum: Naïve, Single Dose; for differentially expressed genes: 100DMF-vs-100MMF
Procedure: as §1, §2, §3, §4, §5, §6, §7, §8

NK cells = experiment: Flow cytometry of NK cell surface markers (MFI) in naïve mice; assay type: in vivo, C57Bl/6 mice; details: 12 hr after 100 mpk PO
From the text: Protein expression is quantified by mean fluorescent intensity (MFI).
12-hours post-dose, mice were sacrificed and blood, spleen, and inguinal lymph node were collected for analysis by flow cytometry.
Transcriptional differences in NK cell markers were confirmed at the protein level by flow cytometry. […] Protein expression was quantified by mean fluorescent intensity (MFI). […] 12-hours post-dose, mice were sacrificed and blood, spleen, and inguinal lymph node (iLN) were collected for analysis by flow cytometry.

[1] = 100 mpk DMF-vs-100 mpk MMF, 2 h after last dosing
[2] = 100 mpk DMF-vs-100 mpk MMF, 7 h after last dosing
[3] = 100 mpk DMF-vs-100 mpk MMF, 12 h after last dosing
[4] = 100 mpk, vs Vehicle, 2 h after last dosing
[5] = 100 mpk, vs Vehicle, 7 h after last dosing
[6] = 100 mpk, vs Vehicle, 12 h after last dosing
[7] = hippocampus, 100DMF-vs-100MMF, 2 h
[8] = hippocampus, 100DMF-vs-Veh, 7 h

For COC(=O)/C=C/C(=O)OC [DMF, dimethyl fumarate], the “Number of genes, DMF Only / MMF Only” value (hippocampus; Hippocampus) was 0, the “Tmtc3 (1458305_PM_at) differential expression” value (hippocampus; Hippocampus, 7 hr) was −2.38 and the “Number of differentially expressed genes identified: Hippocampus” value (“Number of differentially … Hippocampus” below) (hippocampus; [1]) was 2. For the same compound, the “Number of differentially … Hippocampus” value (hippocampus; [2]) was 0, the “Number of differentially … Hippocampus” value (hippocampus; [3]) was 0 and the “Number of differentially … Hippocampus” value (hippocampus; [4]) was 0. The “Number of differentially … Hippocampus” value (hippocampus; [5]) was 2, the “Number of differentially … Hippocampus” value (hippocampus; [6]) was 0 and the “FC Dio2 (1418938_PM_at)” value (hippocampus; [7]) was 1.58. For the same compound, the “FC Tmtc3 (1458305_PM_at)” value (hippocampus; [7]) was −1.88, the differentially expressed genes (hippocampus; hippocampus, 100DMF-vs-100MMF, 7 h) was “None” and the differentially expressed genes (hippocampus; hippocampus, 100DMF-vs-100MMF, 12 h) was “None”. For the same compound, the differentially expressed genes (hippocampus; hippocampus, 100DMF-vs-Veh, 2 h) was “None”, the “FC Tmtc3 (1458305_PM_at)” value (hippocampus; [8]) was −2.38 and the “FC probe 1443353_PM_at” value (hippocampus; [8]) was −1.84. For the same compound, the differentially expressed genes (hippocampus; hippocampus, 100DMF-vs-Veh, 12 h) was “None”, the “Number of differentially expressed genes identified: Striatum” value (“Number of differentially … Striatum” for short) (striatum; [1]) was 0 and the “Number of differentially … Striatum” value (striatum; [2]) was 0. The “Number of differentially … Striatum” value (striatum; [3]) was 0, the “Number of differentially … Striatum” value (striatum; [4]) was 4 and the “Number of differentially … Striatum” value (striatum; [5]) was 2. The “Number of differentially … Striatum” value (striatum; [6]) was 2, the “Number of genes, DMF Only / MMF Only” value (striatum; Striatum) was 5 and the “Gtpbp10 (1434030_PM_at) differential expression” value (striatum; Striatum, 2 hr) was −1.52. For the same compound, the “Kdm3b (1428320_PM_at) differential expression” value (striatum; Striatum, 2 hr) was −1.54, the “Mkln1 (1416734_PM_at) differential expression” value (striatum; Striatum, 2 hr) was −1.97 and the “Ptprg (1456070_PM_at) differential expression” value (striatum; Striatum, 2 hr) was −1.54. The “Aox1 (1419435_PM_at) differential expression” value (striatum; Striatum, 7 hr) was 1.64, the “Nfia (1438236_PM_at) differential expression” value (striatum; Striatum, 12 hr) was −1.53 and the “Zeb2 (1422748_PM_at) differential expression” value (striatum; Striatum, 12 hr) was −1.66. The differentially expressed genes (striatum; striatum, 2 h) was “None”, the differentially expressed genes (striatum; striatum, 7 h) was “None” and the differentially expressed genes (striatum; striatum, 12 h) was “None”. The “FC Gtpbp10 (1434030_PM_at)” value (striatum; striatum, 100DMF-vs-Veh, 2 h) was −1.52, the “FC Kdm3b (1428320_PM_at)” value (striatum; striatum, 100DMF-vs-Veh, 2 h) was −1.54 and the “FC Mkln1 (1416734_PM_at)” value (striatum; striatum, 100DMF-vs-Veh, 2 h) was −1.97. The “FC probe 1444791_PM_at” value (striatum; striatum, 100DMF-vs-Veh, 2 h) was −1.60, the “FC Aox1 (1419435_PM_at)” value (striatum; striatum, 100DMF-vs-Veh, 7 h) was 1.64 and the “FC probe 1443353_PM_at” value (striatum; striatum, 100DMF-vs-Veh, 7 h) was −1.83. For the same compound, the “FC Nfia (1438236_PM_at)” value (striatum; striatum, 100DMF-vs-Veh, 12 h) was −1.53, the “FC Zeb2 (1422748_PM_at)” value (striatum; striatum, 100DMF-vs-Veh, 12 h) was −1.66 and the “Klrb1b (NK1.1) protein expression change, MFI difference compared to MMF 12 hr or vehicle control” value (NK cells; NK cells) was “differentially expressed; also recorded: Significant”. The “Klrc1 (Nkg2a) protein expression change, MFI difference compared to MMF 12 hr or vehicle control” value (NK cells; NK cells) was “differentially expressed; also recorded: Significant”, the “Klrd1 (CD94) protein expression change, MFI difference compared to MMF 12 hr or vehicle control” value (NK cells; NK cells) was “differentially expressed” and the “Klrk1 (NKG2d) protein expression change, MFI difference compared to MMF 12 hr or vehicle control” value (NK cells; NK cells) was “differentially expressed; also recorded: Significant”. For the same compound, the “Ncr1 (NKp46) protein expression change, MFI difference compared to MMF 12 hr or vehicle control” value (NK cells; NK cells) was “Not significant” and the “Effects on NK cells in the spleen” value (NK cells; naïve mice) was “exerts effects on NK cells in the spleen”.
